# Measured values published in US9993494B2, “Compositions and methods for treating fibrotic disease” (eFFECTOR Therapeutics, Inc., priority 2014, dated 2018).
# Tested on: normal human lung fibroblasts
# Experiment: Ribosomal profiling: translational efficiency in TGFβ-treated fibroblasts
# Assay type: cell-based
# Settings: TGFβ-treated fibroblasts
# Method in brief: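 Cells lysed on ice after a cold PBS wash containing cycloheximide. Ribosome-protected fragments and total mRNA were prepared with the ARTseq kit and sequenced by RNA-Seq. Reads were trimmed, mapped to the human genome and counted uniquely over coding regions per gene, with low-count genes excluded before differential translational-efficiency analysis.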
compound,measurement,setting,value
"Cc1ccc(=O)n(-c2ccccc2)c1 [pirfenidone, 5-methyl-1-phenylpyridin-2-one]",renormalizing the translational profile of RPL9,ENSG00000163682,+ (+ = 0.9 to 1.5)
same,renormalizing the translational profile of RHOBTB3,ENSG00000164292,− (− = <0.9)
same,renormalizing the translational profile of HCN1,ENSG00000164588,− (− = <0.9)
same,renormalizing the translational profile of RPL27A,ENSG00000166441,+ (+ = 0.9 to 1.5)
same,renormalizing the translational profile of RP11-382A20.3.1,ENSG00000166503,− (− = <0.9)
same,renormalizing the translational profile of ANKDD1A,ENSG00000166839,+ (+ = 0.9 to 1.5)
same,renormalizing the translational profile of RPL13,ENSG00000167526,− (− = <0.9)
same,renormalizing the translational profile of EEF2,ENSG00000167658,+ (+ = 0.9 to 1.5)
same,renormalizing the translational profile of CA5B,ENSG00000169239,++ (++ = 1.5 to 2.0)
same,renormalizing the translational profile of MURC,ENSG00000170681,− (− = <0.9)
same,renormalizing the translational profile of HTRA3,ENSG00000170801,− (− = <0.9)
same,renormalizing the translational profile of PDE7B,ENSG00000171408,− (− = <0.9)
same,renormalizing the translational profile of LPAR3,ENSG00000171517,− (− = <0.9)
same,renormalizing the translational profile of CTPS,ENSG00000171793,− (− = <0.9)
same,renormalizing the translational profile of QARS,ENSG00000172053,− (− = <0.9)
same,renormalizing the translational profile of RPL38,ENSG00000172809,− (− = <0.9)
same,renormalizing the translational profile of MRPL45,ENSG00000174100,− (− = <0.9)
same,renormalizing the translational profile of RPL4,ENSG00000174444,+ (+ = 0.9 to 1.5)
same,renormalizing the translational profile of RPL15,ENSG00000174748,− (− = <0.9)
same,renormalizing the translational profile of DES,ENSG00000175084,− (− = <0.9)
same,renormalizing the translational profile of EIF3F,ENSG00000175390,− (− = <0.9)
same,renormalizing the translational profile of CLCF1,ENSG00000175505,− (− = <0.9)
same,renormalizing the translational profile of AMIGO3,ENSG00000176020,+ (+ = 0.9 to 1.5)
same,renormalizing the translational profile of C14orf49,ENSG00000176438,− (− = <0.9)
same,renormalizing the translational profile of RPLP2,ENSG00000177600,+ (+ = 0.9 to 1.5)
same,renormalizing the translational profile of IMPDH2,ENSG00000178035,− (− = <0.9)
same,renormalizing the translational profile of DNAJC22,ENSG00000178401,+ (+ = 0.9 to 1.5)
same,renormalizing the translational profile of RPL35A,ENSG00000182899,+ (+ = 0.9 to 1.5)
same,renormalizing the translational profile of LENG9,ENSG00000182909,− (− = <0.9)
same,renormalizing the translational profile of C22orf32,ENSG00000183172,− (− = <0.9)
same,renormalizing the translational profile of NPW,ENSG00000183971,− (− = <0.9)
same,renormalizing the translational profile of PDE4B,ENSG00000184588,+ (+ = 0.9 to 1.5)
same,renormalizing the translational profile of ROBO2,ENSG00000185008,− (− = <0.9)
same,renormalizing the translational profile of PTCH1,ENSG00000185920,− (− = <0.9)
same,renormalizing the translational profile of POLR1D,ENSG00000186184,− (− = <0.9)
same,renormalizing the translational profile of DYNC2H1,ENSG00000187240,− (− = <0.9)
same,renormalizing the translational profile of RPL14,ENSG00000188846,− (− = <0.9)
same,renormalizing the translational profile of LRRK2,ENSG00000188906,− (− = <0.9)
same,renormalizing the translational profile of NACA,ENSG00000196531,+ (+ = 0.9 to 1.5)
same,renormalizing the translational profile of LAMB3,ENSG00000196878,− (− = <0.9)
same,renormalizing the translational profile of PCBP2,ENSG00000197111,− (− = <0.9)
same,renormalizing the translational profile of MAP3K5,ENSG00000197442,− (− = <0.9)
same,renormalizing the translational profile of RPL37A,ENSG00000197756,+ (+ = 0.9 to 1.5)
same,renormalizing the translational profile of RPL12,ENSG00000197958,+ (+ = 0.9 to 1.5)
same,renormalizing the translational profile of LPAR1,ENSG00000198121,− (− = <0.9)
same,renormalizing the translational profile of RPL23A,ENSG00000198242,− (− = <0.9)
same,renormalizing the translational profile of PLN,ENSG00000198523,− (− = <0.9)
same,renormalizing the translational profile of RPL10A,ENSG00000198755,− (− = <0.9)
same,renormalizing the translational profile of CES1,ENSG00000198848,− (− = <0.9)
same,renormalizing the translational profile of RPL39,ENSG00000198918,− (− = <0.9)
same,renormalizing the translational profile of CARD16,ENSG00000204397,− (− = <0.9)
same,renormalizing the translational profile of MICA,ENSG00000204520,− (− = <0.9)
same,renormalizing the translational profile of GNB2L1,ENSG00000204628,+ (+ = 0.9 to 1.5)
same,renormalizing the translational profile of RPL17,ENSG00000215472,+ (+ = 0.9 to 1.5)
same,renormalizing the translational profile of RPL41,ENSG00000229117,− (− = <0.9)
same,renormalizing the translational profile of ARPC1A,ENSG00000241685,− (− = <0.9)
same,renormalizing the translational profile of CHCHD10,ENSG00000250479,+++ (+++ = >2.0)
same,renormalizing the translational profile of EEF1G,ENSG00000254772,− (− = <0.9)
same,number of genes whose translational efficiency was uniquely modulated by the compound,duplicate ribosomal profiles,35 genes
same,effect in renormalizing the translational profile of the gene,gene RPS2 (ENSG00000140988),− (− = <0.9)
same,effect in renormalizing the translational profile of the gene,gene RPS3 (ENSG00000149273),− (− = <0.9)
same,effect in renormalizing the translational profile of the gene,gene RPS3A (ENSG00000145425),− (− = <0.9)
same,effect in renormalizing the translational profile of the gene,gene RPS4X (ENSG00000198034),− (− = <0.9)
same,effect in renormalizing the translational profile of the gene,gene RPS4Y1 (ENSG00000129824),− (− = <0.9)
same,effect in renormalizing the translational profile of the gene,gene RPS5 (ENSG00000083845),+ (+ = 0.9 to 1.5)
same,effect in renormalizing the translational profile of the gene,gene RPS6 (ENSG00000137154),− (− = <0.9)
